Reference: patent US20190116835A1, “Sweetness and Taste Improvement of Steviol Glycoside or Mogroside Sweeteners with Flavonids” (The Coca-Cola Company, priority 2016, published 2019)

How the values were obtained:
[1] = Taste evaluation by trained panelists: sweetness enhancement of Rebaudioside M, compared against sucrose beverages; assay type: in vivo, human; settings: beverage containing 150 ppm Rebaudioside M in acidic water, no Test Mixture 1
Description: The ability of the following compounds to enhance the sweetness of Rebaudioside M was evaluated:
(§1) Sample were prepared with the following ingredients:
(§2) Ingredients were added to water or water with Test Mixture 1 while stirring until solids were visibly dissolved and the sample was poured into a glass bottle and stored at 4° C.
Trained panelists compared the taste and sweetness profiles of (i) the beverage containing 150 ppm Rebaudioside M (Table 3) and (ii) the beverage containing 40 ppm Test Mixture 1 and 150 ppm Rebaudioside M (Table 4) against the 6%, 8%, and 10% sucrose beverages (Table 5).
(§3) Bottles were removed from the refrigerator and about 25 ml of beverage was poured into 4 oz-plastic cups. Panelists were given mineral water to rinse their mouth before and between tastings. Unsalted crackers were also given to panelists to eat followed by rinsing their mouth with mineral water before tasting the next sample. Panelists were instructed to sip, evaluate the sweetness, and then spit the samples in cups provided for that purpose.

[2] = Taste evaluation by trained panelists: sweetness enhancement of Siamenoside I, compared against sucrose beverages; assay type: in vivo, human; settings: beverage containing 150 ppm Siamenoside I in acidic water, no Test Mixture 1
Description: The ability of Text Mixture 1 to enhance the sweetness of Siamenoside I was evaluated.
as §1, §2
The trained panelists then compared the taste and sweetness profiles of (i) the beverage containing 150 ppm Siamenoside I (Table 3) and (ii) the beverage containing 40 ppm Test Mixture 1 and 150 ppm Siamenoside I (Table 4) against the 6%, 8%, and 10% sucrose beverages (Table 5).
as §3

| SMILES | sweetness, as sweet as sucrose beverage [1] | sweetness, equivalent to sucrose beverages [2] |
| --- | --- | --- |
| C=C1C[C@@]23CC[C@H]4[C@@](C)(CCC[C@@]4(C)C(=O)O[C@@H]4O[C@H](CO)[C@@H](O)[C@H](O[C@@H]5O[C@H](CO)[C@@H](O)[C@H](O)[C@H]5O)[C@H]4O[C@@H]4O[C@H](CO)[C@@H](O)[C@H](O)[C@H]4O)[C@@H]2CC[C@]1(O[C@@H]1O[C@H](CO)[C@@H](O)[C@H](O[C@@H]2O[C@H](CO)[C@@H](O)[C@H](O)[C@H]2O)[C@H]1O[C@@H]1O[C@H](CO)[C@@H](O)[C@H](O)[C@H]1O)C3 [Rebaudioside M, rebaudioside M] | 5-6 % sucrose | – |
| C[C@H](CC[C@@H](O[C@@H]1O[C@H](CO[C@@H]2O[C@H](CO)[C@@H](O)[C@H](O)[C@H]2O)[C@@H](O)[C@H](O)[C@H]1O[C@@H]1O[C@H](CO)[C@@H](O)[C@H](O)[C@H]1O)C(C)(C)O)[C@H]1CC[C@@]2(C)[C@@H]3CC=C4[C@@H](CC[C@H](O[C@@H]5O[C@H](CO)[C@@H](O)[C@H](O)[C@H]5O)C4(C)C)[C@]3(C)[C@H](O)C[C@]12C [Siamenoside I, siamenoside I] | – | 4%-6% |
